Experimental data: patent US4581225A, “Sustained release intranasal formulation and method of use thereof” (Eli Lilly and Company, priority 1985, dated 1986)
Where a name gives a salt, the structure may show the parent alone.

Key:
[1] = system: catechol-O-methyltransferase; details: background statement; cited from earlier work
[2] = background statement; cited from earlier work
[3] = dobutamine plasma levels in anesthetized rats after intravenous bolus and intranasal saline solution; format: in vivo; details: rat
Method: According to the present invention, it has been unexpectedly discovered that a catecholamine can be formulated for nasal administration and upon administration achieve equivalent bioavailability as compared to intravenous administration. The purpose of the following study is to examine the bioavailability of the catecholamine dobutamine when administered intranasally and intravenously.
Six male rats weighing 280 g were anesthetized with sodium pentobarbital (50 mg/kg I.P.). Three rats were dosed intravenously with dobutamine hydrochloride at 2.5 mg/kg. Blood samples were taken at 0.5, 2, 4, 6, 10, 15, 20 and 30 minutes for dobutamine plasma analysis. The three remaining rats received dobutamine at 2.5 mg/kg intranasally in a saline solution. Blood samples from these rats were taken at 1, 5, 10, 20, 30, 60 and 120 minutes.
As is known, the one time intravenous administration of dobutamine hydrochloride at 2.5 mg/kg produced a very high dobutamine blood level (greater than 1000 ng/ml) within 30 seconds after administration. The duration of dobutamine in the blood as a result of this method of administration was brief however, lasting only for a period of approximately 30 minutes. For comparison, 1.456 mg of dobutamine hydrochloride was dissolved in 0.2 ml of saline solution and 0.1 ml of this solution was administered intranasally to a 291 g rat to provide a dose of 2.5 mg/kg. […] The intranasal delivery of dobutamine produced a moderate dobutamine blood level of 100 ng/ml after 20 minutes.
The area under the curve (AUC) was calculated with computer assistance employing the trapezoidal method for each route of administration.

Structure (SMILES)	biotransformation by catechol-O-methyltransferase [1]	half-life in the body [2] [min]	concentration at 20 min ([3]; blood, intranasal saline solution 2.5 mg/kg, after 20 minutes, read-out: dobutamine blood level) [ng/mL]	concentration at 0.5 min ([3]; blood, intravenous bolus 2.5 mg/kg, within 30 seconds after administration, average of three, read-out: dobutamine blood level) [ng/mL]	AUC at 0.5 h ([3]; plasma, IV bolus 2.5 mg/kg, trapezoidal method, sampled 0.5-30 minutes, read-out: Area Under the Curve (AUC) (converted)) [ng·h/mL]	AUC at 2 h ([3]; plasma, intranasal saline solution 2.5 mg/kg, trapezoidal method, sampled 1-120 minutes, read-out: Area Under the Curve (AUC) (converted)) [ng·h/mL]	persistence of effective blood level ([3]; intranasal saline solution 2.5 mg/kg, after two hours)	duration of dobutamine in the blood ([3]; intravenous bolus 2.5 mg/kg)
CC(CCc1ccc(O)cc1)NCCc1ccc(O)c(O)c1 (racemic) [dobutamine, (+,-) 4-[2-[[3-(p-hydroxyphenyl)-1-methylpropyl]amino]ethyl]pyrocatechol]	very rapidly biotransformed	2						
CC(CCc1ccc(O)cc1)NCCc1ccc(O)c(O)c1 (centres unmarked) [dobutamine hydrochloride]			100	> 1000	37.1	188	effective blood level remained after two hours	approximately 30 minutes
